biological target: human OATP1B3 transporter (Homo sapiens (Human), UniProt Q9NPD5); test: Transporter mediated cellular uptake, OATP1B3-expressing HEK293; assay type: in vitro ADME; settings: HEK293 stably expressing human OATP1B3, 37° C., 5 minutes
Method: (§1) Transporter Mediated Cellular Uptake
(§2) To determine transporter mediated cellular uptake of compounds, HEK293 stably expressing either human OATP1B1 or human OATP1B3 transporter, or mock transfected cells were cultured at 37° C. in an atmosphere of 95:5 air:CO2 DMEM/F12 medium containing 10% FBS, 100 unit/mL penicillin-G and 100 μg/mL streptomycin. Transporter expressing cell culture medium also contained 500 μg/mL G418 disulfate solution. Cells were plated onto 24-well poly-D-lysine coated culture plates at the density 5×10^5 cells/well 24 hours prior to uptake assay. Compound stock solutions were made at 1000× final concentration in 100% DMSO. Final compound solutions were prepared by diluting stock solutions into HBSS buffer (pH 7.4) On the day of the uptake assay cell culture media was removed and cells were washed twice with 300 μL of HBSS buffer (pH 7.4). Cellular uptake of compound into the cells was measured by adding 300 μL of final compound solutions in HBSS and incubating them at 37° C. for 0.5 minutes (OATP1B1) or 5 minutes (OATP1B3). Reactions were quenched by removing the buffer containing the TA and the cells were washed twice with 300 μL of HBSS buffer. Cells were lysed by adding 300 μL of MeOH:H2O (2:1) and incubated for 20 minutes at 4° C. The amount of compound in the cell lysate was determined by LC-MS/MS. The amount of protein in each well was quantified using the BCA kit for protein determination and used to normalize compound uptake (Sigma-Aldrich, St Louis, Mo., USA). • Uptake of the probe substrate in control cells provided background activity values for all data points. • Incubation with probe substrate (solvent only) provided 100% activity values. • A reference positive control was used for each transporter

Chain of human OATP1B3 transporter (Q9NPD5 whole entry): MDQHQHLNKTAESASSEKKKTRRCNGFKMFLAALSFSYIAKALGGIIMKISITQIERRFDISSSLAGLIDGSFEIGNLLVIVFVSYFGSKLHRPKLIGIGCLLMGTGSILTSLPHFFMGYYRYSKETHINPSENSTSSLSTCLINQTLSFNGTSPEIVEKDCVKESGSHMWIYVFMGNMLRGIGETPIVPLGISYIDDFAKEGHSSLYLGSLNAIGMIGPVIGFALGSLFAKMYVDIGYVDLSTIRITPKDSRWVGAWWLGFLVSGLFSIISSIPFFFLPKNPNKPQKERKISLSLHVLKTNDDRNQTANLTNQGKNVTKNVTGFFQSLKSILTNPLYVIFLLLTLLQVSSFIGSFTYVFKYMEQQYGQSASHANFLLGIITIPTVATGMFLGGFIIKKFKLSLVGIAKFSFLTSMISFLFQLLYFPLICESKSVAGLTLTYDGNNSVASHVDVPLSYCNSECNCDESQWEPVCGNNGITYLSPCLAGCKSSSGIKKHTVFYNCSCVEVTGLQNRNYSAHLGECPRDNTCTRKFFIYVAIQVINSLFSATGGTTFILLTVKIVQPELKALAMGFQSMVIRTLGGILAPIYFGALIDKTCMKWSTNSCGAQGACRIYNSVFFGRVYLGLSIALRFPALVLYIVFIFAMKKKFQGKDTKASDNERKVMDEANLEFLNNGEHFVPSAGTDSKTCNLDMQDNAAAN

With CC(C)n1cnnc1-c1cccc(N2Cc3ccc(-c4cccc(C(C)(C)C(=O)O)c4)cc3C2=O)n1 [Compound 102, 2-(3-(2-(6-(4-Isopropyl-4H-1,2,4-triazol-3-yl)pyridin-2-yl)-3-oxoisoindolin-5-yl)phenyl)-2-methylpropanoic Acid] as the compound, how does the “OATP1B3 Uptake (Percent of no transporter control cell)” value read?
Its value is 632%.

With C[C@]12CC[C@@H]3c4ccc(O)cc4CC[C@H]3[C@@H]1CC[C@@H]2O [Estradiol, reference compound] as the compound, how does the “OATP1B3 Uptake (Percent of no transporter control cell)” value read?
The value was 490%.

biological target: recombinant human ASK1 protein (Homo sapiens (Human), UniProt Q99683); test: ASK1 kinase activity inhibition assay (radiometric 33P incorporation into MBP); assay type: biochemical; settings: Table 3; 20 μM MBP, 10 μM 33P-ATP
Method: ASK1 Kinase Activity Inhibition Assay
Inhibition of ASK1 kinase activity was determined radiometrically using 33P substrate incorporation (Reaction Biology Corp., Malvern, Pa.). Briefly, recombinant human ASK1 protein, 20 μM substrate (myelin basic protein (MBP)), and compound (diluted from DMSO stock to give 1% final DMSO) were incubated in Base Reaction buffer (20 mM Hepes (pH 7.5), 10 mM MgCl2, 1 mM EGTA, 0.02% Brij35, 0.02 mg/mL BSA, 0.1 mM Na3VO4, 2 mM DTT, 1% DMSO) at room temperature for 20 minutes. The reaction was initiated by addition of 10 μM 33P-ATP (specific activity […]). The reaction was then allowed to proceed for 2 hours at room temperature. Upon reaction termination, the mixture was spotted on P81 exchange paper and kinase activity by incorporation of 33P into MBP substrate was detected by filter-binding method.

Chain of recombinant human ASK1 protein (Q99683 whole entry): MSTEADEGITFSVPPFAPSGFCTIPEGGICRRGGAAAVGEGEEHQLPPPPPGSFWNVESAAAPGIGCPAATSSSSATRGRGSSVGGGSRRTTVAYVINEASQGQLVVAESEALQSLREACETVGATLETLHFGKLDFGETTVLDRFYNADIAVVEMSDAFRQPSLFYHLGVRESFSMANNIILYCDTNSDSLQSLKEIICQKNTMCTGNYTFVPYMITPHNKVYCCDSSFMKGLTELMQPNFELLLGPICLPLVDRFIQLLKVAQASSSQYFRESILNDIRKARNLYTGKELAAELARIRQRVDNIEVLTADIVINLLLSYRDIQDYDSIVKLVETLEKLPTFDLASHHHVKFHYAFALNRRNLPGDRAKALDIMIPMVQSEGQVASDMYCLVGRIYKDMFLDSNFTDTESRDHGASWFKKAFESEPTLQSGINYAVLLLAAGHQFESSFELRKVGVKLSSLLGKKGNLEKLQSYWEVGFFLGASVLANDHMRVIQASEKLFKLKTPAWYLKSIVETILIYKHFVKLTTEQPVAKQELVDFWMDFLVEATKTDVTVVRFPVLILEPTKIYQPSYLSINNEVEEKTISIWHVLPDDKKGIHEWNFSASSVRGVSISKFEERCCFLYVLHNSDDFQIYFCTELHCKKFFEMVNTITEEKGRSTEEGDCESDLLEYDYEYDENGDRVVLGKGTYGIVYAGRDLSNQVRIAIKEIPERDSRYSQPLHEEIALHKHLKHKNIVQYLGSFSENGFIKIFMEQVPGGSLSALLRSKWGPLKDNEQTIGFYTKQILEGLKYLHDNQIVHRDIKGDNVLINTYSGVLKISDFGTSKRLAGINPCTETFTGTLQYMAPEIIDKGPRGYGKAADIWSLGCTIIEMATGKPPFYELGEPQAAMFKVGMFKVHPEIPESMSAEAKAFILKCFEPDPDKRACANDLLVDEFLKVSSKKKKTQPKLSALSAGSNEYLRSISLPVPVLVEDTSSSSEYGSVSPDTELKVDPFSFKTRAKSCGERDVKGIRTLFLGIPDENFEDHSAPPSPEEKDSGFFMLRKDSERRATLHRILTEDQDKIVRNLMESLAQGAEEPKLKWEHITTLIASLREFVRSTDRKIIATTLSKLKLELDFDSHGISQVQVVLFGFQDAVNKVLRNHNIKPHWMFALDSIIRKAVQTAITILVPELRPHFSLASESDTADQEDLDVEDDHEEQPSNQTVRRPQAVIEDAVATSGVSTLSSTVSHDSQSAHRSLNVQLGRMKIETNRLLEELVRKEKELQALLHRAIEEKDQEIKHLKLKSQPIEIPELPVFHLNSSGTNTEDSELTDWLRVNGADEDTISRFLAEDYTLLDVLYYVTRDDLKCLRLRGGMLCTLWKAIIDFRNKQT

For CC(C)n1cnnc1-c1cccc(N2Cc3ccc(-c4cccc(C(C)(C)C(=O)O)c4)cc3C2=O)n1 [Compound 102, 2-(3-(2-(6-(4-Isopropyl-4H-1,2,4-triazol-3-yl)pyridin-2-yl)-3-oxoisoindolin-5-yl)phenyl)-2-methylpropanoic Acid], which IC50 is on record?
Its IC50 is 0.7 nM.

CC(C)n1cnnc1-c1cccc(N2Cc3ccc(-c4ccccc4C(=O)O)cc3C2=O)n1 [Compound 56, 2-(2-(6-(4-Isopropyl-4H-1,2,4-triazol-3-yl)pyridin-2-yl)-3-oxoisoindolin-5-yl)benzoic Acid] was tested. Which IC50 did it give?
The IC50 was 42.2 nM.

How did the IC50 turn out when CC(C)(C(=O)O)c1cccc(-c2ccc3c(c2)C(=O)N(c2cccc(-c4nncn4C4CC4)n2)C3)c1 [Compound 103, 2-(3-(2-(6-(4-Cyclopropyl-4H-1,2,4-triazol-3-yl)pyridin-2-yl)-3-oxoisoindolin-5-yl)phenyl)-2-methylpropanoic Acid] was run?
The IC50 was 12.5 nM.

COc1cc(C(=O)O)ccc1-c1ccc2c(c1)C(=O)N(c1cccc(-c3nncn3C(C)C)n1)C2 [Compound 76, 4-(2-(6-(4-Isopropyl-4H-1,2,4-triazol-3-yl)pyridin-2-yl)-3-oxoisoindolin-5-yl)-3-methoxybenzoic Acid] was tested. Which IC50 did it give?
The IC50 was 8.2 nM.

With Cc1cc(C(=O)O)cc(-c2ccc3c(c2)C(=O)N(c2cccc(-c4nncn4C(C)C)n2)C3)n1 [Compound 115, 2-(2-(6-(4-Isopropyl-4H-1,2,4-triazol-3-yl)pyridin-2-yl)-3-oxoisoindolin-5-yl)-6-methylisonicotinic Acid] as the compound, how does the IC50 read?
Its IC50 is 6.5 nM.

How did the IC50 turn out when COc1cc(-c2ccc3c(c2)C(=O)N(c2cccc(-c4nncn4C(C)C)n2)C3)ccc1C(=O)O [Compound 75, 4-(2-(6-(4-Isopropyl-4H-1,2,4-triazol-3-yl)pyridin-2-yl)-3-oxoisoindolin-5-yl)-2-methoxybenzoic Acid] was run?
Its IC50 is 5.6 nM.

With CC(C)n1cnnc1-c1cccc(N2Cc3ccc(-c4ccc(OCC(=O)O)cc4)cc3C2=O)n1 [Compound 89, 2-(4-(2-(6-(4-Isopropyl-4H-1,2,4-triazol-3-yl)pyridin-2-yl)-3-oxoisoindolin-5-yl)phenoxy) acetic Acid] as the compound, how does the IC50 read?
Its IC50 is 4.9 nM.

Which IC50 does the source give for CC(C)n1cnnc1-c1cccc(N2Cc3ccc(-c4cnc(N)c(C(=O)O)c4)cc3C2=O)n1 [Compound 117, 2-Amino-5-(2-(6-(4-isopropyl-4H-1,2,4-triazol-3-yl)pyridin-2-yl)-3-oxoisoindolin-5-yl) Nicotinic Acid] here?
The IC50 was 1.9 nM.

For CC(C)n1cnnc1-c1cccc(N2Cc3ccc(-c4cccc(-c5nn[nH]n5)c4)cc3C2=O)n1 [Compound 37, 6-(3-(2H-Tetrazol-5-yl)phenyl)-2-(6-(4-isopropyl-4H-1,2,4-triazol-3-yl)pyridin-2-yl)isoindolin-1-one], which IC50 is on record?
Its IC50 is 2.8 nM.

How did the IC50 turn out when CC(C)n1cnnc1-c1cccc(N2Cc3ccc(-c4ccc(C5(C(=O)O)CC5)cc4)cc3C2=O)n1 [Compound 86, 1-(4-(2-(6-(4-Isopropyl-4H-1,2,4-triazol-3-yl)pyridin-2-yl)-3-oxoisoindolin-5-yl)phenyl)cyclopropane-1-carboxylic Acid] was run?
The IC50 was 1.83 nM.

CC(C)n1cnnc1-c1cccc(N2Cc3ccc(-c4cc(C(=O)O)ccc4F)cc3C2=O)n1 [Compound 5, 4-Fluoro-3-(2-(6-(4-isopropyl-4H-1,2,4-triazol-3-yl)pyridin-2-yl)-3-oxoisoindolin-5-yl)benzoic Acid] was tested. Which IC50 did it give?
Its IC50 is 0.3 nM.

With CC(C)n1cnnc1-c1cccc(N2Cc3ccc(-c4ccc(C(=O)O)c(Cl)c4)cc3C2=O)n1 [Compound 72, 2-Chloro-4-(2-(6-(4-isopropyl-4H-1,2,4-triazol-3-yl)pyridin-2-yl)-3-oxoisoindolin-5-yl)benzoic Acid] as the compound, how does the IC50 read?
The IC50 was 4.7 nM.

Cc1c(C(=O)O)ccnc1-c1ccc2c(c1)C(=O)N(c1cccc(-c3nncn3C(C)C)n1)C2 [Compound 114, 2-(2-(6-(4-Isopropyl-4H-1,2,4-triazol-3-yl)pyridin-2-yl)-3-oxoisoindolin-5-yl)-3-methylisonicotinic Acid] was tested. Which IC50 did it give?
The IC50 was 2.1 nM.

Which IC50 does the source give for CC(C)n1cnnc1-c1cccc(N2Cc3ccc([C@H]4CC[C@H](C(=O)O)CC4)cc3C2=O)n1 [Compound 126, trans-4-(2-(6-(4-Isopropyl-4H-1,2,4-triazol-3-yl)pyridin-2-yl)-3-oxoisoindolin-5-yl)cyclohexane-1-carboxylic acid] here?
The IC50 was 13.4 nM.

CC(C)n1cnnc1-c1cccc(N2Cc3ccc(N4CCCC(C(=O)O)C4)cc3C2=O)n1 (stereo not drawn) [Compound 28, 1-(2-(6-(4-Isopropyl-4H-1,2,4-triazol-3-yl)pyridin-2-yl)-3-oxoisoindolin-5-yl)piperidine-3-carboxylic Acid] was tested. Which IC50 did it give?
Its IC50 is 11.2 nM.

CC(C)n1cnnc1-c1cccc(N2Cc3ccc(-c4ccc(-n5ncc(C(=O)O)c5N)cc4)cc3C2=O)n1 [Compound 120, 5-Amino-1-(4-(2-(6-(4-isopropyl-4H-1,2,4-triazol-3-yl)pyridin-2-yl)-3-oxoisoindolin-5-yl)phenyl)-1H-pyrazole-4-carboxylic Acid] was tested. Which IC50 did it give?
Its IC50 is 8.2 nM.

Which IC50 does the source give for CC(C)n1cnnc1-c1cccc(N2Cc3ccc(-c4ccc(F)c(C(=O)O)c4)cc3C2=O)n1 [Compound 3, 2-Fluoro-5-(2-(6-(4-isopropyl-4H-1,2,4-triazol-3-yl)pyridin-2-yl)-3-oxoisoindolin-5-yl)benzoic Acid] here?
The IC50 was 4.9 nM.

With CC(C)n1cnnc1-c1cccc(N2Cc3ccc(-c4cccc(C(=O)O)c4O)cc3C2=O)n1 [Compound 95, 2-Hydroxy-3-(2-(6-(4-isopropyl-4H-1,2,4-triazol-3-yl)pyridin-2-yl)-3-oxoisoindolin-5-yl) benzoic Acid] as the compound, how does the IC50 read?
Its IC50 is 3.4 nM.

How did the IC50 turn out when CC(C)n1cnnc1-c1cccc(N2Cc3ccc(-c4ccc5c(c4)COC5=O)cc3C2=O)n1 [Compound 82, 2-(6-(4-Isopropyl-4H-1,2,4-triazol-3-yl)pyridin-2-yl)-6-(1-oxo-1,3-dihydroisobenzofuran-5-yl)isoindolin-1-one] was run?
The IC50 was 3.2 nM.

With “6-(2-(6-(4-Isopropyl-4H-1,2,4-triazol-3-yl)pyridin-2-yl)-3-oxoisoindolin-5-yl)pyridazine-4-carboxylic Acid [Compound 119]” as the compound, how does the IC50 read?
The IC50 was 5.2 nM.

For CC(C)n1cnnc1-c1cccc(N2Cc3ccc(-c4ccc(CC(=O)O)cc4)cc3C2=O)n1 [Compound 84, 2-(4-(2-(6-(4-Isopropy-4H-1,2,4-triazol-3-yl)pyridin-2-yl)-3-oxoisoindolin-5-yl)phenyl)acetic Acid], which IC50 is on record?
Its IC50 is 4.3 nM.

COc1ccc(-c2ccc3c(c2)C(=O)N(c2cccc(-c4nncn4C(C)C)n2)C3)cc1C(=O)O [Compound 96, 5-(2-(6-(4-Isopropyl-4H-1,2,4-triazol-3-yl)pyridin-2-yl)-3-oxoisoindolin-5-yl)-2-methoxybenzoic Acid] was tested. Which IC50 did it give?
The IC50 was 4.9 nM.

CC(C)n1cnnc1-c1cccc(N2Cc3ccc(-c4ccc(C(=O)O)cc4F)cc3C2=O)n1 [Compound 57, 3-Fluoro-4-(2-(6-(4-isopropyl-4H-1,2,4-triazol-3-yl)pyridin-2-yl)-3-oxoisoindolin-5-yl)benzoic Acid] was tested. Which IC50 did it give?
The IC50 was 5.8 nM.

CC(C)n1cnnc1-c1cccc(N2Cc3ccc(-c4ccc(C(C)(C)C(=O)O)cc4F)cc3C2=O)n1 [Compound 41, 2-(3-Fluoro-4-(2-(6-(4-isopropyl-4H-1,2,4-triazol-3-yl)pyridin-2-yl)-3-oxoisoindolin-5-yl)phenyl)-2-methylpropanoic Acid] was tested. Which IC50 did it give?
Its IC50 is 4.7 nM.

CC(C)n1cnnc1-c1cccc(N2Cc3ccc(N4CCC(C(=O)O)CC4)cc3C2=O)n1 [Compound 128, 1-(2-(6-(4-isopropyl-4H-1,2,4-triazol-3-yl)pyridin-2-yl)-3-oxoisoindolin-5-yl)piperidine-4-carboxylic acid] was tested. Which IC50 did it give?
Its IC50 is 6.16 nM.

How did the IC50 turn out when O=C1c2cc(-c3cccc(C4(C(=O)O)CC4)c3)ccc2CN1c1cccc(-c2nncn2C2CC2)n1 [Compound 106, 1-(3-(2-(6-(4-Cyclopropyl-4H-1,2,4-triazol-3-yl)pyridin-2-yl)-3-oxoisoindolin-5-yl)phenyl)cyclopropane-1-carboxylic Acid] was run?
The IC50 was 8.4 nM.

biological target: human OATP1B1 transporter (Homo sapiens (Human), UniProt Q9Y6L6); test: Transporter mediated cellular uptake, OATP1B1-expressing HEK293; assay type: in vitro ADME; settings: HEK293 stably expressing human OATP1B1, 37° C., 0.5 minutes
Method: as §1, §2

Chain of human OATP1B1 transporter (Q9Y6L6 whole entry): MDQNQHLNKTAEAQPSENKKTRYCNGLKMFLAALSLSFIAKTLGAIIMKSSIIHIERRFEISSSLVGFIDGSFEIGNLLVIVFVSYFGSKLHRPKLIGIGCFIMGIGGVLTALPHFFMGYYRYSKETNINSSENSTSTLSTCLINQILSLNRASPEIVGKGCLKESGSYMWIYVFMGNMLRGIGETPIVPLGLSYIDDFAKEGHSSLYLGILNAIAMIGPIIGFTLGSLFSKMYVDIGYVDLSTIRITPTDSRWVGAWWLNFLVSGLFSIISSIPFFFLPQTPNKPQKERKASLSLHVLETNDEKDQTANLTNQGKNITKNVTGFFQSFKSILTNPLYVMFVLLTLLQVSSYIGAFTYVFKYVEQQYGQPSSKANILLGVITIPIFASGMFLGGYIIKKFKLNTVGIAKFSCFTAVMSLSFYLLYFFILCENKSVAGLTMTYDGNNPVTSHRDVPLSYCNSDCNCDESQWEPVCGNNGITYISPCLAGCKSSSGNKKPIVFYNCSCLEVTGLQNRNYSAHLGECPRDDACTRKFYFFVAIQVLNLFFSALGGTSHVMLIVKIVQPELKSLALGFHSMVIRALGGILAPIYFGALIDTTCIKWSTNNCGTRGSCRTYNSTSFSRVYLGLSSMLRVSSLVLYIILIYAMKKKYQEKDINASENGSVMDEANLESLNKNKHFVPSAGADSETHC

With CC(C)n1cnnc1-c1cccc(N2Cc3ccc(-c4cccc(C(C)(C)C(=O)O)c4)cc3C2=O)n1 [Compound 102, 2-(3-(2-(6-(4-Isopropyl-4H-1,2,4-triazol-3-yl)pyridin-2-yl)-3-oxoisoindolin-5-yl)phenyl)-2-methylpropanoic Acid] as the compound, how does the “OATP1B1 Uptake (Percent of no transporter control cell)” value read?
The value was 221%.

For C[C@]12CC[C@@H]3c4ccc(OS(=O)(=O)O)cc4CC[C@H]3[C@@H]1CCC2=O [Estrone 3-sulphate, reference compound], which “OATP1B1 Uptake (Percent of no transporter control cell)” value is on record?
The value was 685%.
